Source: article PMC4666608, “Metabolic Profiling of Chicken Embryos Exposed to Perfluorooctanoic Acid (PFOA) and Agonists to Peroxisome Proliferator-Activated Receptors” (PLoS ONE, 2015)
Marks after values point to notes of the source that are not given here.

Test system: chicken embryos
Experiment: Metabolic profiling of allantoic fluid (GC-MS, LC-MS, OPLS-DA)
Assay type: in vivo, Gallus gallus domesticus
Conditions: LC; for Mean concentration relative to control, feature 155.0353@0.6447272: suggested C3H10NO4P; for Mean concentration relative to control, feature 345.0497@1.1234403: suggested C10H12N5O7P; for Mean concentration relative to control, feature 337.0259@4.4213357: suggested C13H11N3O4S2; for Mean concentration relative to control, feature 344.1427@2.1164653: suggested C13H20N4O7; for Mean concentration relative to control, feature 331.184@6.373359: suggested C13H25N5O5; for Mean concentration relative to control, feature 361.2026@5.6644735: suggested C16H31N3O4S
Procedure: Controls were injected with 20 μL vehicle only (DMSO).
Plasma was collected and stored at -70°C.
Metabolites in allantoic fluid and blood plasma were analyzed using gas chromatography-mass spectrometry (GC-MS) and liquid chromatography-mass spectrometry (LC-MS) as described in S1 Methods. Prior to GC-MS and LC-MS analysis, allantoic fluid (100 μL) and blood plasma (50 μL) were extracted. To each sample, 900 μL (allantoic fluid) or 450 μL (blood plasma) of extraction buffer (90/10 v/v methanol:water) including all internal standards were added. Standards for GC-MS were proline, succinic acid, glutamic acid, salicylic acid, alpha-ketoglutarate, putrescine, myristic acid, hexadecanoic acid, cholesterol, and sucrose. Standards for LC-MS were Val-Tyr-Val, Leu-enkephalin, sulfadimethoxine and reserpine. Samples were homogenized by shaking in a bead mill at a frequency of 30 Hz for 3 minutes and proteins were precipitated at +4°C on ice. The samples were centrifuged at +4°C, 14000 rpm, for 10 min. Then, 200 μL supernatant was transferred to a GC microvial and 200 μL was transferred to an LC microvial, and solvents were evaporated. Samples from the four replicate experiments were analyzed using in chronological order and within each replicate experiment the run order of the individual samples was randomized.
Multivariate statistical analyses of metabolite profiles were performed using the software package SIMCA-P version 13.0 (Umetrics, Umeå, Sweden). Data was centered and scaled to variance 1 (UV scaling) prior to modelling. To reduce unintended systematic variation caused by sample processing and instrument drift, GC-MS and LC-MS metabolite amounts (expressed as the area under the chromatographic peak) were normalized by Orthogonal Partial Least Squares analysis (O2PLS) prior to multivariate data analysis. O2PLS finds common (predictive) and unique (orthogonal) variation in two data matrices. If applied to find the common variation between the data matrix containing the measured metabolite concentrations and a matrix containing only the internal standards, the only common (predictive) variation expected is due to the unintended systematic variation. By deleting the contribution of the predictive latent variables, that variation can be removed from the data. Models obtained after this normalization contain in general less latent variables, and this simplification helps when deciding on the number of latent variables to be used. Following normalization, GC-MS and LC-MS data were analyzed together. Initially, a global Principal Component Analysis (PCA) was performed to get an overview of groups and trends and to identify outliers. Projections to latent structures by means of Orthogonal Partial Least Squares Discriminant Analysis (OPLS-DA) was used to model the relationship between the X-matrix (metabolite concentrations) and the Y matrix (class, i.e. exposure group or sex), and to find x-variables that were related to class belonging. OPLS-DA is a supervised prediction and regression method that rotates the projection plane to find the maximum covariance between the data and the class assignment. All groups were first analyzed together in a 5-class OPLS-DA and then each exposure group was analyzed against the control group in a 2-class OPLS-DA. Sex differences were analyzed both using the whole data set and in each group separately using 2-class OPLS-DA, with females and males as the two classes. Only variables with 80% or more nonzero values were included in the statistical models. […] The validity of each model was also checked using CV-ANOVA (ANOVA of the cross-validated residuals). A significance level of p < 0.05 was used. For each model, R ^2 X, R ^2 Y and Q ^2 values were calculated, where R ^2 X is a measure of the fraction of x variation modeled in the extracted latent variables, R ^2 Y is a measure of the fraction of y variation modeled and Q ^2 is an estimate of the predictive ability of the model and is calculated by cross-validation. […]

O=C(O)C(F)(F)C(F)(F)C(F)(F)C(F)(F)C(F)(F)C(F)(F)C(F)(F)F [PFOA, perfluorooctanoic acid]
Mean concentration relative to control, feature 466.0837@2.1187525 (PFOA 50 μg/egg): 1.0
Mean concentration relative to control, feature 488.0753@4.419585 (PFOA 50 μg/egg): 1.0
Mean concentration relative to control, feature 498.1003@2.1184251 (PFOA 50 μg/egg): 1.0
Mean concentration relative to control, feature 507.1682@2.1238236 (PFOA 50 μg/egg): 1.0
Mean concentration relative to control, feature 580.1426@3.0726147 (PFOA 50 μg/egg): 1.0
Mean concentration relative to control, feature 582.1578@2.1747615 (PFOA 50 μg/egg): 1.0
Mean concentration relative to control, feature 588.1751@2.1182237 (PFOA 50 μg/egg): 1.0
Mean concentration relative to control, feature 594.1337@3.0724604 (PFOA 50 μg/egg): 1.0
Mean concentration relative to control, feature 604.1486@2.1174603 (PFOA 50 μg/egg): 1.0
Mean concentration relative to control, feature 623.183@2.1249466 (PFOA 50 μg/egg): 0.9
Mean concentration relative to control, feature 668.2625@6.4379454 (PFOA 50 μg/egg): 1.0
Mean concentration relative to control, feature 155.0353@0.6447272 (PFOA 50 μg/egg): 0.4*
Mean concentration relative to control, feature 345.0497@1.1234403 (PFOA 50 μg/egg): 1.1
Mean concentration relative to control, feature 337.0259@4.4213357 (PFOA 50 μg/egg): 1.0
Mean concentration relative to control, feature 344.1427@2.1164653 (PFOA 50 μg/egg): 1.0
Mean concentration relative to control, feature 331.184@6.373359 (PFOA 50 μg/egg): 0.9
Mean concentration relative to control, feature 361.2026@5.6644735 (PFOA 50 μg/egg): 0.8
Mean concentration relative to control, feature 134.0239@1.1350567 (PFOA 250 μg/egg): 0.9
Mean concentration relative to control, feature 145.0538@3.072527 (PFOA 250 μg/egg): 1.1
Mean concentration relative to control, feature 147.0328@3.0722888 (PFOA 250 μg/egg): 1.1
Mean concentration relative to control, feature 160.0323@1.1950632 (PFOA 250 μg/egg): 1.1
Mean concentration relative to control, feature 173.0488@3.0734746 (PFOA 250 μg/egg): 1.1
Mean concentration relative to control, feature 176.0952@1.3890611 (PFOA 250 μg/egg): 0.5*
Mean concentration relative to control, feature 178.0428@1.7582192 (PFOA 250 μg/egg): 1.0
Mean concentration relative to control, feature 180.0048@4.421465 (PFOA 250 μg/egg): 1.0
Mean concentration relative to control, feature 189.1159@1.9209185 (PFOA 250 μg/egg): 0.9
Mean concentration relative to control, feature 197.0639@2.1181405 (PFOA 250 μg/egg): 1.0
Mean concentration relative to control, feature 201.012@3.046474 (PFOA 250 μg/egg): 1.1
Mean concentration relative to control, feature 202.0429@2.9548414 (PFOA 250 μg/egg): 1.0
Mean concentration relative to control, feature 205.0533@4.421879 (PFOA 250 μg/egg): 1.0
Mean concentration relative to control, feature 214.016@2.1190732 (PFOA 250 μg/egg): 0.9
Mean concentration relative to control, feature 226.0107@4.421457 (PFOA 250 μg/egg): 1.0
Mean concentration relative to control, feature 236.0816@3.0720985 (PFOA 250 μg/egg): 1.1
Mean concentration relative to control, feature 241.0551@2.3510706 (PFOA 250 μg/egg): 1.0
Mean concentration relative to control, feature 243.1118@2.1537287 (PFOA 250 μg/egg): 1.0
Mean concentration relative to control, feature 244.9972@4.421603 (PFOA 250 μg/egg): 1.0
Mean concentration relative to control, feature 245.1563@2.2907295 (PFOA 250 μg/egg): 0.9
Mean concentration relative to control, feature 250.0981@3.072492 (PFOA 250 μg/egg): 1.1
Mean concentration relative to control, feature 262.0978@2.7961144 (PFOA 250 μg/egg): 1.1
Mean concentration relative to control, feature 263.0855@2.2847009 (PFOA 250 μg/egg): 1.0
Mean concentration relative to control, feature 270.0441@1.1407775 (PFOA 250 μg/egg): 1.0
Mean concentration relative to control, feature 278.0928@3.0723689 (PFOA 250 μg/egg): 1.1
Mean concentration relative to control, feature 279.1248@2.796395 (PFOA 250 μg/egg): 1.2
Mean concentration relative to control, feature 280.1425@2.730277 (PFOA 250 μg/egg): 1.0
Mean concentration relative to control, feature 288.1166@2.9551322 (PFOA 250 μg/egg): 1.2
Mean concentration relative to control, feature 289.1012@3.249983 (PFOA 250 μg/egg): 1.0
Mean concentration relative to control, feature 289.173@7.5030584 (PFOA 250 μg/egg): 1.2
Mean concentration relative to control, feature 294.1242@2.3692534 (PFOA 250 μg/egg): 1.0
Mean concentration relative to control, feature 302.0508@3.0722616 (PFOA 250 μg/egg): 1.1
Mean concentration relative to control, feature 305.1682@5.353517 (PFOA 250 μg/egg): 0.5***
Mean concentration relative to control, feature 305.1684@5.2955093 (PFOA 250 μg/egg): 0.7**
Mean concentration relative to control, feature 308.073@4.4211636 (PFOA 250 μg/egg): 1.0
Mean concentration relative to control, feature 310.1181@1.5090439 (PFOA 250 μg/egg): 1.0
Mean concentration relative to control, feature 316.0389@3.0725708 (PFOA 250 μg/egg): 1.1
Mean concentration relative to control, feature 320.0626@3.0729218 (PFOA 250 μg/egg): 1.1
Mean concentration relative to control, feature 325.1114@2.1190624 (PFOA 250 μg/egg): 1.1
Mean concentration relative to control, feature 325.1115@2.3554378 (PFOA 250 μg/egg): 1.1
Mean concentration relative to control, feature 333.1335@2.8639288 (PFOA 250 μg/egg): 0.9
Mean concentration relative to control, feature 333.2005@6.5291867 (PFOA 250 μg/egg): 0.8*
Mean concentration relative to control, feature 335.1866@4.508565 (PFOA 250 μg/egg): 0.9
Mean concentration relative to control, feature 337.1651@1.8737898 (PFOA 250 μg/egg): 0.9
Mean concentration relative to control, feature 344.1424@2.348947 (PFOA 250 μg/egg): 1.0
Mean concentration relative to control, feature 348.0553@3.0730357 (PFOA 250 μg/egg): 1.1
Mean concentration relative to control, feature 349.1651@2.4087605 (PFOA 250 μg/egg): 0.9
Mean concentration relative to control, feature 357.1997@6.9691257 (PFOA 250 μg/egg): 0.9
Mean concentration relative to control, feature 371.1513@3.0009465 (PFOA 250 μg/egg): 1.2
Mean concentration relative to control, feature 375.1819@3.672254 (PFOA 250 μg/egg): 0.9
Mean concentration relative to control, feature 394.167@3.9552917 (PFOA 250 μg/egg): 1.0
Mean concentration relative to control, feature 414.1482@2.118972 (PFOA 250 μg/egg): 1.1
Mean concentration relative to control, feature 466.0837@2.1187525 (PFOA 250 μg/egg): 1.1
Mean concentration relative to control, feature 488.0753@4.419585 (PFOA 250 μg/egg): 1.0
Mean concentration relative to control, feature 498.1003@2.1184251 (PFOA 250 μg/egg): 1.0
Mean concentration relative to control, feature 507.1682@2.1238236 (PFOA 250 μg/egg): 1.0
Mean concentration relative to control, feature 580.1426@3.0726147 (PFOA 250 μg/egg): 1.2
Mean concentration relative to control, feature 582.1578@2.1747615 (PFOA 250 μg/egg): 1.2
Mean concentration relative to control, feature 588.1751@2.1182237 (PFOA 250 μg/egg): 1.1
Mean concentration relative to control, feature 594.1337@3.0724604 (PFOA 250 μg/egg): 1.2
Mean concentration relative to control, feature 604.1486@2.1174603 (PFOA 250 μg/egg): 1.0
Mean concentration relative to control, feature 623.183@2.1249466 (PFOA 250 μg/egg): 1.1
Mean concentration relative to control, feature 668.2625@6.4379454 (PFOA 250 μg/egg): 1.0
Mean concentration relative to control, feature 155.0353@0.6447272 (PFOA 250 μg/egg): 0.3*
Mean concentration relative to control, feature 345.0497@1.1234403 (PFOA 250 μg/egg): 1.1
Mean concentration relative to control, feature 337.0259@4.4213357 (PFOA 250 μg/egg): 1.0
Mean concentration relative to control, feature 344.1427@2.1164653 (PFOA 250 μg/egg): 1.0
Mean concentration relative to control, feature 331.184@6.373359 (PFOA 250 μg/egg): 0.7**
Mean concentration relative to control, feature 361.2026@5.6644735 (PFOA 250 μg/egg): 0.9
